Assay results taken from patent US8058475B2, “Substituted cyclohexylmethyl compounds” (Gruenenthal GmbH, priority 2005, dated 2011).
Where a name gives a salt, the structure may show the parent alone. Read-outs that look alike come from different tables or passages of the source.

Key:
Serotonin (5HT) reuptake = molecular target: T1, Serotonin (5HT) reuptake (Rattus norvegicus, UniProt P31652); test: Serotonin (5HT) reuptake inhibition in rat brain synaptosomes (P2 fraction); type: biochemical; conditions: for inhibition at 10 µM: read-out: Serotonin reuptake, % inhibition [10 μM]
T1 construct: synaptosomes are freshly isolated from areas of rat brain; from tissue; host or cells: rat brain synaptosomes (P2 fraction)
T1 sequence (P31652 whole entry): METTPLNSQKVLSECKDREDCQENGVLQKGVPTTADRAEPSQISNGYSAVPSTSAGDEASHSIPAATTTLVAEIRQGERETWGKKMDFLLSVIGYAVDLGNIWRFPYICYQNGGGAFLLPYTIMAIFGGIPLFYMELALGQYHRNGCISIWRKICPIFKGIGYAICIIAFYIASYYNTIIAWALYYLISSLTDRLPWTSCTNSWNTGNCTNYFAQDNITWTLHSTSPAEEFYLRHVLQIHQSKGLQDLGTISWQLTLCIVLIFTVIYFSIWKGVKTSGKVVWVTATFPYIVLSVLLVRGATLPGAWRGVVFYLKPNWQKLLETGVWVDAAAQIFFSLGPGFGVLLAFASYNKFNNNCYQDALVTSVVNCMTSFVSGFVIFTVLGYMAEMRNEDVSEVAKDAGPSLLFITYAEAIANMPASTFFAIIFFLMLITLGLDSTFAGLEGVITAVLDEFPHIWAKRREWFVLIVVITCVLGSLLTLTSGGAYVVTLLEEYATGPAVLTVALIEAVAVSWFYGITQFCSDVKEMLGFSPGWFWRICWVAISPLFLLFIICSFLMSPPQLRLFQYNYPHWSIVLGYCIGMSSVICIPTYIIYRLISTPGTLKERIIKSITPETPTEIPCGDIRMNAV
Excerpt: Noradrenaline (NA) and Serotonin (5HT) Reuptake Inhibition
In order to be able to carry out these studies in vitro, synaptosomes are freshly isolated from areas of rat brain. A so-called “P2” fraction prepared by the method of Gray and Whittaker (E. G. Gray and V. P. Whittaker (1962) J. Anat. 76, 79-88) is used in each case. For the NA uptake, these vesicular particles are isolated from the hypothalamus of male rat brains.
A detailed description of the method will be found in the literature (M. Ch. Frink, H. H. Hennies, W. Englberger, M. Haurand and B. Wilffert (1996) Arzneim.-Forsch./Drug Res. 46 (III), 11, 1029-1036).

human μ-opiate receptor = human μ-opiate receptor (Homo sapiens, UniProt P35372); test: Affinity for the human μ-opiate receptor ([3H]-naloxone displacement, SPA, CHO-K1 membrane preparation); type: binding; conditions: for inhibition at 1 µM: read-out: μ-Opioid receptor, % inhibition [1 μM]; for Ki: read-out: μ-Opioid receptor, Ki
Chain of human μ-opiate receptor (P35372 whole entry): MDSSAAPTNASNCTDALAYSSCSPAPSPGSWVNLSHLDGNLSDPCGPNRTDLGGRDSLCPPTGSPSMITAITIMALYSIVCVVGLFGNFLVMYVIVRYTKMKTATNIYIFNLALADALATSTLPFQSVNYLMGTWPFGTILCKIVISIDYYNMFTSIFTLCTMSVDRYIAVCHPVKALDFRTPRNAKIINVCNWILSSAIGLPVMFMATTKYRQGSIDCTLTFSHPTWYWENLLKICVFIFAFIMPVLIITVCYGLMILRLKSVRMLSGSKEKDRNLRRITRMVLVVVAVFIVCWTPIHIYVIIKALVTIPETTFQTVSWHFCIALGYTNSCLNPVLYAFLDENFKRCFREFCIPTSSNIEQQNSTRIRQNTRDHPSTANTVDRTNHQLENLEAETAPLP

[1] = molecular target: T2, Noradrenaline (NA) reuptake (Rattus norvegicus, UniProt Q63380); test: Noradrenaline (NA) reuptake inhibition in rat brain synaptosomes (hypothalamus, P2 fraction); type: biochemical; conditions: for inhibition at 10 µM: read-out: NA reuptake, % inhibition [10 μM]
T2 construct: synaptosomes are freshly isolated from areas of rat brain; from tissue; host or cells: rat hypothalamus synaptosomes (P2 fraction)
T2 sequence (Q63380 1-617): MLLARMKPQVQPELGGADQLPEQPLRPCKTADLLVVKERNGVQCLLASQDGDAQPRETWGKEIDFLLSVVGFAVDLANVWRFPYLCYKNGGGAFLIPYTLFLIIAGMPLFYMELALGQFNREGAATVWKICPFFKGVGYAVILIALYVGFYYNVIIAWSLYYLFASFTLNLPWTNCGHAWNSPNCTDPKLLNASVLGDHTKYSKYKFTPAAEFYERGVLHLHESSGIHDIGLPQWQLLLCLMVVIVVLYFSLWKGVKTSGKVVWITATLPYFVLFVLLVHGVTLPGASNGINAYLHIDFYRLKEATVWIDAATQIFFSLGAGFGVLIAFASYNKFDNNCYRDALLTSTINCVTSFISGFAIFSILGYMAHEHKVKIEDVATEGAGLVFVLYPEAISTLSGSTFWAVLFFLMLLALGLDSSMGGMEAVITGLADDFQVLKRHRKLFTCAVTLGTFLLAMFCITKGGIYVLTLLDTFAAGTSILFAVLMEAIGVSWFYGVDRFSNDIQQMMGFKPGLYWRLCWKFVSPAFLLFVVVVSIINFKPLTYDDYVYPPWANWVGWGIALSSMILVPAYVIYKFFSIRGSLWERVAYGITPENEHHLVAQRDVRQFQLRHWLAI
Summary of the method: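 Freshly isolated rat brain synaptosomes (P2 fraction, Gray–Whittaker method) used for uptake; for NA uptake the particles came from hypothalamus of male rats.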

[2] = 1 μM test substance, inhibition of specific [3H]-naloxone binding

| Compound | inhibition at 10 µM (Serotonin (5HT) reuptake) | inhibition at 1 µM (human μ-opiate receptor; 1 μM, sulfonamides (Table 17)) | Ki (human μ-opiate receptor; sulfonamides (Table 17)) | inhibition at 10 µM [1] | inhibition at 1 µM (human μ-opiate receptor; [2]) | Ki (human μ-opiate receptor) | Ki (Serotonin (5HT) reuptake) | Ki [1] |
| --- | --- | --- | --- | --- | --- | --- | --- | --- |
| CN(C)C(c1ccccc1)C1CCC(NS(=O)(=O)c2ccccc2[N+](=O)[O-])CC1 (centres unmarked) [compound 109, N-(4-((dimethylamino)(phenyl)methyl)cyclohexyl)-2-nitrobenzene-sulfonamide hydrochloride] | 93% | 92% | 77 nM | 76% |  |  |  |  |
| CN(C)C(c1ccccc1)C1CCC(NS(=O)(=O)c2ccccc2)CC1 (centres unmarked) [compound 110, N-(4-((dimethylamino)(phenyl)methyl)cyclohexyl)benzenesulfonamide hydrochloride] | 86% | 93% | 25 nM | 62% |  |  |  |  |
| CN(C)C(c1ccc(F)cc1)C1CCC(O)CC1 (centres unmarked) [compound 112, 4-[dimethylamino-(4-fluorophenyl)-methyl]-cyclohexanol] | 82% |  |  | 74% | 66% |  |  |  |
| CN(C)C(c1cccc(F)c1)C1CCC(O)CC1 (centres unmarked) [compound 113, 4-[dimethylamino-(3-fluorophenyl)-methyl]-cyclohexanol] | 83% |  |  | 82% | 46% |  |  |  |
| CN(C)C(c1ccc(Cl)cc1)C1CCC(O)CC1 (centres unmarked) [compound 114, 4-[(4-chlorophenyl)-dimethylamino-methyl]-cyclohexanol] | 64% |  |  | 93% | 43% |  |  |  |
| CN(C)C(c1cccs1)C1CCC(O)CC1 (centres unmarked) [compound 115, 4-(dimethylamino-thiophen-2-yl-methyl)-cyclohexanol] | 63% |  |  | 47% | 61% |  |  |  |
| CN(C)C(CCc1ccccc1)C1CCC(O)CC1 (centres unmarked) [compound 116, 4-(1-dimethylamino-3-phenyl-propyl)-cyclohexanol] | 74% |  |  | 95% | 37% |  |  |  |
| CN(C)C(c1ccccc1)C1CCC(CO)CC1 (centres unmarked) [compound 117, [4-(dimethylamino-phenyl-methyl)-cyclohexyl]-methanol] | 85% |  |  | 82% | 57% |  |  |  |
| CN(C)C(c1ccc(F)cc1)C1CCC(CO)CC1 (centres unmarked) [compound 118, {4-[dimethylamino-(4-fluorophenyl)-methyl]-cyclohexyl}-methanol] | 90% |  |  | 91% | 33% |  |  |  |
| CN(C)C(c1cccc(F)c1)C1CCC(CO)CC1 (centres unmarked) [compound 119, {4-[dimethylamino-(3-fluorophenyl)-methyl]-cyclohexyl}-methanol] | 88% |  |  | 91% | 43% |  |  |  |
| CN(C)C(c1ccc(Cl)cc1)C1CCC(CO)CC1 (centres unmarked) [compound 120, {4-[(4-chlorophenyl)-dimethylamino-methyl]-cyclohexyl}-methanol] | 79% |  |  | 93% | 51% |  |  |  |
| CN(C)C(c1cccs1)C1CCC(CO)CC1 (centres unmarked) [compound 121, [4-(dimethylamino-thiophen-2-yl-methyl)-cyclohexyl]-methanol] | 74% |  |  | 66% | 61% |  |  |  |
| CN(C)C(CCc1ccccc1)C1CCC(CO)CC1 (centres unmarked) [compound 122, [4-(1-dimethylamino-3-phenyl-propyl)-cyclohexyl]-methanol] | 77% |  |  | 97% | 32% |  |  |  |
| CCOC(=O)C=C1CCC(C(c2ccccc2)N(C)C)CC1 (centres unmarked) [compound 123, [4-(dimethylamino-phenyl-methyl)-cyclohexylidene]-acetic acid ethyl ester] | 92% |  |  | 66% | 75% | 190 nM |  |  |
| CCOC(=O)CC1CCC(C(c2ccccc2)N(C)C)CC1 (centres unmarked) [compound 124, [4-(dimethylamino-phenyl-methyl)-cyclohexyl]-acetic acid ethyl ester] | 85% |  |  | 76% | 79% | 79 nM | 97 nM |  |
| CN(C)C(c1ccccc1)C1CCC(CCO)CC1 (centres unmarked) [compound 125, 2-[4-(dimethylamino-phenyl-methyl)-cyclohexyl]-ethanol] | 82% |  |  | 86% | 62% |  |  |  |
| CCOC(=O)C=C1CCC(C(c2ccc(F)cc2)N(C)C)CC1 (centres unmarked) [compound 126, {4-[dimethylamino-(4-fluorophenyl)-methyl]-cyclohexylidene}-acetic acid ethyl ester] | 86% |  |  | 81% | 35% |  |  |  |
| CCOC(=O)CC1CCC(C(c2ccc(F)cc2)N(C)C)CC1 (centres unmarked) [compound 127, {4-[dimethylamino-(4-fluorophenyl)-methyl]-cyclohexyl}-acetic acid ethyl ester] | 90% |  |  | 89% | 34% |  |  |  |
| CN(C)C(c1ccc(F)cc1)C1CCC(CCO)CC1 (centres unmarked) [compound 128, 2-{4-[dimethylamino-(4-fluorophenyl)-methyl]-cyclohexyl}-ethanol] | 84% |  |  | 88% | 18% |  |  |  |
| CCOC(=O)C=C1CCC(C(c2cccc(F)c2)N(C)C)CC1 (centres unmarked) [compound 129, {4-[dimethylamino-(3-fluorophenyl)-methyl]-cyclohexylidene}-acetic acid ethyl ester] | 91% |  |  | 81% | 47% | 540 nM | 86 nM |  |
| CCOC(=O)CC1CCC(C(c2cccc(F)c2)N(C)C)CC1 (centres unmarked) [compound 130, {4-[dimethylamino-(3-fluorophenyl)-methyl]-cyclohexyl}-acetic acid ethyl ester] | 93% |  |  | 82% | 82% | 230 nM | 16 nM |  |
| CN(C)C(c1cccc(F)c1)C1CCC(CCO)CC1 (centres unmarked) [compound 131, 2-{4-[dimethylamino-(3-fluorophenyl)-methyl]-cyclohexyl}-ethanol] | 91% |  |  | 89% | 68% |  |  |  |
| CCOC(=O)C=CC1CCC(C(c2ccccc2)N(C)C)CC1 (centres unmarked) [compound 132, 3-[4-(dimethylamino-phenyl-methyl)-cyclohexyl]-acrylic acid ethyl ester] | 86% |  |  | 84% | 91% | 120 nM | 420 nM | 590 nM |
| CCOC(=O)CCC1CCC(C(c2ccccc2)N(C)C)CC1 (centres unmarked) [compound 133, 3-[4-(dimethylamino-phenyl-methyl)-cyclohexyl]-propionic acid ethyl ester] | 89% |  |  | 87% | 81% | 96 nM | 99 nM |  |
| CN(C)C(c1ccccc1)C1CCC(CCCO)CC1 (centres unmarked) [compound 134, 3-[4-(dimethylamino-phenyl-methyl)-cyclohexyl]-propan-1-ol] | 86% |  |  | 90% | 45% |  |  |  |
| CCOC(=O)C=CC1CCC(C(c2ccc(F)cc2)N(C)C)CC1 (centres unmarked) [compound 135, 3-{4-[dimethylamino-(4-fluorophenyl)-methyl]-cyclohexyl}-acrylic acid ethyl ester] | 78% |  |  | 90% | 70% | 380 nM | 220 nM | 490 nM |
